Results: the supplement of paper PMC8612539

System: Escherichia coli
Test: minimum inhibitory concentration (MIC)
Procedure: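 Broth microdilution MIC (Sensititre BOPO7F bovine plate, CLSI methods) of 19 antimicrobials against field isolates of P. multocida, M. haemolytica, H. somni (deep nasopharyngeal swabs) and E. coli, Enterococcus spp. (rectal swabs) from weaned dairy heifers. Incubation 16-24 h at 35 C. MIC is the lowest concentration preventing visible growth. Values with <= or > lie at the tested range limits. Trimethoprim-sulfamethoxazole is given as the trimethoprim component of a 1:19 mixture.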

COc1cc(Cc2cnc(N)nc2N)cc(OC)c1OC.Cc1cc(NS(=O)(=O)c2ccc(N)cc2)no1 [trimethoprim-sulfamethoxazole]
Settings	minimum inhibitory concentration [µg/mL]
isolate (source animal id): 171	≤ 2
isolate (source animal id): 172	≤ 2
isolate (source animal id): 173	≤ 2
isolate (source animal id): 174	≤ 2
isolate (source animal id): 175	≤ 2
isolate (source animal id): 176	≤ 2
isolate (source animal id): 177	≤ 2
isolate (source animal id): 178	≤ 2
isolate (source animal id): 179	≤ 2
isolate (source animal id): 180	≤ 2
isolate (source animal id): 181	≤ 2
isolate (source animal id): 182	≤ 2
isolate (source animal id): 183	≤ 2
isolate (source animal id): 184	≤ 2
isolate (source animal id): 185	≤ 2
isolate (source animal id): 186	≤ 2
isolate (source animal id): 187	≤ 2
isolate (source animal id): 188	> 2
isolate (source animal id): 189	≤ 2
isolate (source animal id): 190	> 2
isolate (source animal id): 191	≤ 2
isolate (source animal id): 192	≤ 2
isolate (source animal id): 193	≤ 2
isolate (source animal id): 194	≤ 2
isolate (source animal id): 195	≤ 2
isolate (source animal id): 196	≤ 2
isolate (source animal id): 197	≤ 2
isolate (source animal id): 198	> 2
isolate (source animal id): 199	≤ 2
isolate (source animal id): 200	≤ 2
isolate (source animal id): 201	≤ 2
isolate (source animal id): 202	≤ 2
isolate (source animal id): 203	≤ 2
isolate (source animal id): 204	≤ 2
isolate (source animal id): 205	≤ 2
isolate (source animal id): 206	≤ 2
isolate (source animal id): 207	≤ 2
isolate (source animal id): 208	≤ 2
isolate (source animal id): 209	≤ 2
isolate (source animal id): 210	≤ 2
isolate (source animal id): 211	≤ 2
isolate (source animal id): 212	≤ 2
isolate (source animal id): 213	≤ 2
isolate (source animal id): 214	≤ 2
isolate (source animal id): 215	≤ 2
isolate (source animal id): 216	> 2
isolate (source animal id): 217	≤ 2
isolate (source animal id): 218	≤ 2
isolate (source animal id): 219	≤ 2
isolate (source animal id): 220	≤ 2
isolate (source animal id): 221	≤ 2
isolate (source animal id): 222	≤ 2
isolate (source animal id): 223	≤ 2
isolate (source animal id): 224	≤ 2
isolate (source animal id): 225	≤ 2
isolate (source animal id): 226	> 2
isolate (source animal id): 227	≤ 2
isolate (source animal id): 228	≤ 2
isolate (source animal id): 229	> 2
isolate (source animal id): 230	≤ 2
isolate (source animal id): 231	≤ 2
isolate (source animal id): 232	≤ 2
isolate (source animal id): 233	≤ 2
isolate (source animal id): 234	≤ 2
isolate (source animal id): 235	≤ 2
isolate (source animal id): 236	≤ 2
isolate (source animal id): 237	≤ 2
isolate (source animal id): 238	≤ 2
isolate (source animal id): 239	≤ 2
isolate (source animal id): 240	≤ 2
isolate (source animal id): 241	≤ 2
isolate (source animal id): 242	≤ 2
isolate (source animal id): 243	≤ 2
isolate (source animal id): 244	≤ 2
isolate (source animal id): 245	≤ 2
isolate (source animal id): 246	≤ 2
isolate (source animal id): 247	≤ 2
isolate (source animal id): 248	≤ 2
isolate (source animal id): 249	≤ 2
isolate (source animal id): 250	≤ 2
isolate (source animal id): 251	≤ 2
isolate (source animal id): 252	≤ 2
isolate (source animal id): 253	≤ 2
isolate (source animal id): 254	≤ 2
isolate (source animal id): 255	≤ 2
isolate (source animal id): 256	≤ 2
isolate (source animal id): 257	≤ 2
isolate (source animal id): 258	≤ 2
isolate (source animal id): 259	> 2
isolate (source animal id): 260	≤ 2
isolate (source animal id): 261	≤ 2
isolate (source animal id): 262	≤ 2
isolate (source animal id): 263	≤ 2
isolate (source animal id): 264	≤ 2
isolate (source animal id): 265	≤ 2
isolate (source animal id): 266	≤ 2
isolate (source animal id): 267	≤ 2
isolate (source animal id): 268	≤ 2
isolate (source animal id): 269	≤ 2
isolate (source animal id): 270	≤ 2
isolate (source animal id): 271	≤ 2
isolate (source animal id): 272	≤ 2
isolate (source animal id): 273	≤ 2
isolate (source animal id): 274	> 2
isolate (source animal id): 275	> 2
isolate (source animal id): 276	≤ 2
isolate (source animal id): 277	≤ 2
isolate (source animal id): 278	≤ 2
isolate (source animal id): 279	≤ 2
isolate (source animal id): 280	≤ 2
isolate (source animal id): 281	≤ 2
isolate (source animal id): 282	≤ 2
isolate (source animal id): 283	≤ 2
isolate (source animal id): 284	≤ 2
isolate (source animal id): 285	≤ 2
isolate (source animal id): 286	> 2
isolate (source animal id): 287	> 2
isolate (source animal id): 288	≤ 2
isolate (source animal id): 289	≤ 2
isolate (source animal id): 290	≤ 2
isolate (source animal id): 291	> 2
isolate (source animal id): 292	> 2
isolate (source animal id): 293	≤ 2
isolate (source animal id): 294	≤ 2
isolate (source animal id): 295	> 2
isolate (source animal id): 296	≤ 2
isolate (source animal id): 297	≤ 2
isolate (source animal id): 298	> 2
isolate (source animal id): 299	≤ 2
isolate (source animal id): 300	≤ 2
isolate (source animal id): 301	≤ 2
isolate (source animal id): 302	≤ 2
isolate (source animal id): 303	≤ 2
isolate (source animal id): 304	> 2
isolate (source animal id): 305	≤ 2
isolate (source animal id): 306	≤ 2
isolate (source animal id): 307	≤ 2
isolate (source animal id): 308	≤ 2
isolate (source animal id): 309	≤ 2
isolate (source animal id): 310	≤ 2
isolate (source animal id): 311	> 2
isolate (source animal id): 312	≤ 2
isolate (source animal id): 313	≤ 2
isolate (source animal id): 314	≤ 2
isolate (source animal id): 315	≤ 2
isolate (source animal id): 316	> 2
isolate (source animal id): 317	> 2
isolate (source animal id): 318	≤ 2
isolate (source animal id): 319	≤ 2
isolate (source animal id): 320	≤ 2
isolate (source animal id): 321	> 2
isolate (source animal id): 322	≤ 2
isolate (source animal id): 323	> 2
isolate (source animal id): 324	≤ 2
isolate (source animal id): 325	> 2
isolate (source animal id): 326	≤ 2
isolate (source animal id): 327	≤ 2
isolate (source animal id): 328	≤ 2
isolate (source animal id): 329	≤ 2
isolate (source animal id): 330	≤ 2
isolate (source animal id): 331	≤ 2
isolate (source animal id): 332	≤ 2
isolate (source animal id): 333	≤ 2
isolate (source animal id): 334	> 2
isolate (source animal id): 335	≤ 2
isolate (source animal id): 336	≤ 2
isolate (source animal id): 337	≤ 2
isolate (source animal id): 338	> 2
isolate (source animal id): 339	≤ 2
isolate (source animal id): 340	≤ 2
isolate (source animal id): 341	≤ 2
